Biological target: T1, α4β7 (Homo sapiens, UniProt P13612+P26010)
T1 construct: endogenous in cells; host or cells: RPMI 8866 cells
T1 sequence (P13612 34-1032): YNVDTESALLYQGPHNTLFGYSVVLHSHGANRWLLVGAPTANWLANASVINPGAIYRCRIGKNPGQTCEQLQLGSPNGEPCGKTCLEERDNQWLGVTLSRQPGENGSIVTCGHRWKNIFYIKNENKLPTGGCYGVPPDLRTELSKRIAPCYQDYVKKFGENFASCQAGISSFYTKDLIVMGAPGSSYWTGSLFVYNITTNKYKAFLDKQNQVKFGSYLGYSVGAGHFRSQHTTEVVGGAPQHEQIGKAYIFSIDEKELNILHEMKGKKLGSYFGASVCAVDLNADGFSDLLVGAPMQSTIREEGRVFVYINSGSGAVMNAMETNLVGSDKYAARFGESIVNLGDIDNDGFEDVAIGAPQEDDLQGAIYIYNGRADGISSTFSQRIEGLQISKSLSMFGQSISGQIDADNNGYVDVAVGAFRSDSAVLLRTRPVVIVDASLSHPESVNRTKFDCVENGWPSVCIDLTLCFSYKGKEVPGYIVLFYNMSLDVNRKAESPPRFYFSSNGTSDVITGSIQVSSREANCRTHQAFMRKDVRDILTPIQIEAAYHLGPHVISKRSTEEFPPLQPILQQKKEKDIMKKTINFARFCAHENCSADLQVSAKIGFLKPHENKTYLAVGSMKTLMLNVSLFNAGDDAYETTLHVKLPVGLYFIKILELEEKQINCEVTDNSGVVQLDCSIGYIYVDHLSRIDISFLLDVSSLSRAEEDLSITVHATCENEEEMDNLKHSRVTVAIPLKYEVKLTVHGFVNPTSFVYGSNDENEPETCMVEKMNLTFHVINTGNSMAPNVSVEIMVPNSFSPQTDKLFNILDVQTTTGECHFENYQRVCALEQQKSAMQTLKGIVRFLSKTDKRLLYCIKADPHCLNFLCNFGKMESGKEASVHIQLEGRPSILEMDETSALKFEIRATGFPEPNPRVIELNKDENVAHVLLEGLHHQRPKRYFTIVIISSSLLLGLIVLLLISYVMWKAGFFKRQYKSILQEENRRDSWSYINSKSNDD
T1 sequence (P26010 20-798): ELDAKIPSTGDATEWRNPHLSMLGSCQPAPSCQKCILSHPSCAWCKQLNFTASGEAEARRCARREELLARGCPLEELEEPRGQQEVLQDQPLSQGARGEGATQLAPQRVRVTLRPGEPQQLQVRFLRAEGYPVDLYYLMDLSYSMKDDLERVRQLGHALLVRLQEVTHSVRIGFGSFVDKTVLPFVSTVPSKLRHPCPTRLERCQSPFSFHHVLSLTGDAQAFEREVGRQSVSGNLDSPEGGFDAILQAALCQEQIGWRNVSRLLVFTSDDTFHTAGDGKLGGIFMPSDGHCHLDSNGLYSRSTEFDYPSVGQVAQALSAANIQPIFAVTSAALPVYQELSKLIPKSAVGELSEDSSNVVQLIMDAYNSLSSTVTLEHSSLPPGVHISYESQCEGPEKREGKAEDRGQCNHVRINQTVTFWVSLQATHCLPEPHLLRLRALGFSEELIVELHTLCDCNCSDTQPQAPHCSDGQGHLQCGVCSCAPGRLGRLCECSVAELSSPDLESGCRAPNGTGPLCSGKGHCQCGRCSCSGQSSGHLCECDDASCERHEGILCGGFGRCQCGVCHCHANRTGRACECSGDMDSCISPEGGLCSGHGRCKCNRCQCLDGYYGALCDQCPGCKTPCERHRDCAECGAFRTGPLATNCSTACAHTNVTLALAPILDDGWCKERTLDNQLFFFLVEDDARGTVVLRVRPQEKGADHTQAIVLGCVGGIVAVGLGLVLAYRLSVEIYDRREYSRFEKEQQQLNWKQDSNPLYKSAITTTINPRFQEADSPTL
Test: Cell adhesion assay, RPMI8866 cells on MAdCAM coated plates (Example 7)
Type: cell-based
Details: RPMI8866 cells adhering to recombinant human MAdCAM; Table 3; read-out: CA Assay (Example 7)
Protocol: Three in vitro assays were used to examine the α4β7 mechanistic process used by cells: 1) ligand:receptor affinity, 2) the avidity of those interactions on a cell's surface, and 3) how those interactions fare under an imposing force. In Example 5, a Fluorescence Polarization (FP) assay is used to measure compound activity through binding competition with the fluorescein-labeled peptide. In Example 6, the potency of compounds against α4β7 is measured in the cell-based ligand binding assay (LBA), using RPMI 8866 cells incubated with the compound samples in competition with soluble MAdCAM-1 ligand. In Example 7, activity of compounds is evaluated in a cell adhesion assay that mechanistically tests what occurs in vivo when trafficking cells utilize α4β7 to adhere to MAdCAM-1 expressing HEVs of the gut during the extravasation process. In the cell adhesion assay of Example 7, a MAdCAMI1-(Fc) is coated on plastic, and α4β7 expressing cells (RPMI-8866) are allowed to adhere to the coated surface in the presence of the test compounds. Next, the force of washing with buffer is applied to cells thereby testing the strength of that adhesion. Unattached cells are removed and the remaining adherent cells are quantified.
Example 7 describes a cell adhesion assay.
To each well of a 96 well plate, 100 ug of recombinant human MAdCAM in 100 ul PBS is added and incubated overnight at 4° C. After incubation MAdCAM is removed by aspiration and 200 ul of PBS+1% BSA is added to block the plate for 2 hours at 37° C. and 5% CO2. During this incubation dilution curves of compound are made in 100% DMSO in 96 well V bottom plates. 1.75 ul of diluted compounds are then transferred to a new 96 well U bottom plate containing 20 ul of assay media (phosphate free DMEM+25 mM HEPES+1% BSA). To this an additional 155 ul of assay media is added with mixing by pipetting up and down. This mixture is allowed to incubate for 15 minutes at 37° C. and 5% CO2. After incubation 175 ul of assay media containing 2e6/mL RPMI8866 cells is added to compound containing wells without mixing and plate is allowed to incubate for another 15 minutes at 37° C. and 5% CO2. During this incubation MAdCAM coated plates are removed from incubator and washed twice with 200 ul PBS+0.1% BSA. […] This plate is then incubated at 37° C. and 5% CO2 for 1 hour. After incubation plates are washed twice with 200 ul and once with 50 ul of phenol free RPMI+1% BSA. A final 50 ul of phenol free RPMI+1% BSA is added to wells after last wash. Next 50 ul of Promega cell titer glow is added to the wells. Plate is incubated on shaker for 2 minutes at 200 RPM followed by another 8 minutes off shaker before having the luminescence read on a Biotek Citation 5 plate reader. Raw data is converted to % inhibition compared to bottom of curve and analyzed using a 4-parameter non linear curve in Prism to determine IC50 and IC90.

| IC50 [nM] | SMILES |
| --- | --- |
| < 5 | Cc1cccc(C)c1-c1cc([C@H](CC(=O)O)NC(=O)C(CC(C)C)n2cc(CCN3CCC3)c(C(F)(F)F)cc2=O)c(F)c(C(F)(F)F)c1 (single isomer, unassigned) [G-P2] |
| < 5 | COc1ccc(C)c(-c2cc(C)c(F)c([C@H](CC(=O)O)NC(=O)C(CC(C)C)n3cc(CCN4CCC4)c(C(F)(F)F)cc3=O)c2)c1C (single isomer, unassigned) [AG-P2] |
| < 5 | Cc1cc(-c2c(C)cccc2C)cc([C@H](CC(=O)O)NC(=O)C(CC(C)C)n2cc(CCN3CC(F)C3)cc(F)c2=O)c1F (single isomer, unassigned) [AV-P2] |
| < 5 | Cc1cc(C)c(-c2cc(C)c(F)c([C@H](CC(=O)O)NC(=O)C(CC(C)C)n3cc(CCN(C)C)c(C(F)(F)F)cc3=O)c2)c(C)c1 (single isomer, unassigned) [AC-P2] |
| < 5 | Cc1cc(-c2c(C)ccc(F)c2C)cc([C@H](CC(=O)O)NC(=O)C(CC(C)C)n2cc(CCN3CCC3)c(C(F)(F)F)cc2=O)c1F (single isomer, unassigned) [AF-P2] |

Same assay, conditions: RPMI8866 cells adhering to recombinant human MAdCAM; Table 4 comparative compounds; read-out: CA Assay (Example 7)

| SMILES | IC50 [nM] |
| --- | --- |
| Cc1ccccc1-c1cccc([C@H](CC(=O)O)NC(=O)[C@H](CC(C)C)n2cccc(C)c2=O)c1 | > 500 |
| COc1cccc(F)c1-c1cccc([C@H](CC(=O)O)NC(=O)[C@H](CC(C)C)n2cnc3ccccc3c2=O)c1 | > 500 |
| Cc1cccc(C)c1-c1cc([C@H](CC(=O)O)NC(=O)[C@H](CC(C)C)n2ccccc2=O)ccn1 | > 500 |
| Cc1ccccc1-c1cc([C@H](CC(=O)O)NC(=O)C(CC(C)C)n2ccccc2=O)ccn1 (stereo partly drawn) | > 500 |
| CC(C)C[C@@H](C(=O)N[C@@H](CC(=O)O)c1ccc(-c2ccccc2)cc1)n1cc(CCN2CC(F)C2)cc(F)c1=O | > 500 |
| COc1ccc([C@H](CC(=O)O)NC(=O)C(CC(C)C)n2ccccc2=O)cc1-c1ccccc1C (stereo partly drawn) | > 500 |
| Cc1cccc(C)c1-c1cncc([C@H](CC(=O)O)NC(=O)[C@H](CC(C)C)n2ccccc2=O)c1 | > 100 |
| Cc1ccccc1-c1cccc([C@H](CC(=O)O)NC(=O)[C@H](CC(C)C)n2ccncc2=O)c1 | > 500 |
| CC(C)C[C@@H](C(=O)N[C@@H](CC(=O)O)c1ccc(-c2ccc(F)cc2)cc1)n1cc(CCN2CC(F)C2)cc(F)c1=O | > 500 |
| COC[C@@H](C(=O)N[C@@H](CC(=O)O)c1cccc(-c2c(C)cccc2C)c1)n1ccc(C)cc1=O | > 500 |
| Cc1ccccc1-c1cc([C@H](CC(=O)O)NC(=O)C(CC(C)C)n2ccccc2=O)ccc1C#N (stereo partly drawn) | > 500 |
| CC(C)C[C@@H](C(=O)N[C@@H](CC(=O)O)c1ccc(-c2ccccc2)cc1)n1cc(CCN(C)C)c(C(F)(F)F)cc1=O | > 500 |
| Cc1ccc([C@@H](C(=O)N[C@@H](CC(=O)O)c2cncc(-c3c(C)cccc3C)c2)N2CC(C)CCC2=O)cc1 (stereo partly drawn) | > 500 |
| Cc1ccccc1-c1cccc([C@H](CC(=O)O)NC(=O)[C@H](CC(C)C)n2ccccc2=O)c1 | > 500 |
| CC(C)C[C@@H](C(=O)N[C@@H](CC(=O)O)c1ccc(-c2ccc(F)cc2)cc1)n1cc(CCN(C)C)c(C(F)(F)F)cc1=O | > 500 |

The remaining lines, values ahead:

| IC50 [nM] | SMILES |
| --- | --- |
| > 50 | Cc1cccc(C)c1-c1cccc([C@H](CC(=O)O)NC(=O)[C@H](CC(C)C)n2cc(CN3CC(F)C3)ccc2=O)c1 [drawing 589] |
| > 50 | Cc1cccc(C)c1-c1cccc([C@H](CC(=O)O)NC(=O)[C@H](CC(C)C)n2cc(CN3CC(F)C3)ccc2=O)c1 [drawing 577] |
| 10 to 50 | Cc1cccc(C)c1-c1cncc([C@H](CC(=O)O)NC(=O)[C@H](CC(C)C)n2ccc(C(F)(F)F)cc2=O)c1 |
| > 50 | Cc1cccc(C)c1-c1cccc([C@H](CC(=O)O)NC(=O)[C@H](CC(C)C)n2cc(CN3CC(F)C3)ccc2=O)c1 [drawing 572] |
| > 50 | Cc1cccc(C)c1-c1cncc([C@H](CC(=O)O)NC(=O)[C@H](CC(C)C)N2CC[C@@H](C(F)(F)F)CC2=O)c1 |
| > 100 | Cc1cccc(C)c1-c1cccc([C@H](CC(=O)O)NC(=O)[C@H](CC(C)C)n2cccc(CCN(C)C)c2=O)c1 |
| 10 to 50 | Cc1cccc(C)c1-c1cccc([C@H](CC(=O)O)NC(=O)[C@H](CC(C)C)n2ccc(CCN(C)C)cc2=O)c1 |
| > 50 | Cc1cccc(C)c1-c1cccc([C@H](CC(=O)O)NC(=O)[C@H](CC(C)C)n2cc(CN3CC(F)C3)ccc2=O)c1 [drawing 604] |
| 10 to 50 | Cc1cccc(C)c1-c1cccc([C@H](CC(=O)O)NC(=O)[C@H](CC(C)C)n2cc(CN3CC[C@@H](F)C3)ccc2=O)c1 |
| 10 to 50 | Cc1ccn([C@@H](CC(C)C)C(=O)N[C@@H](CC(=O)O)c2cncc(-c3c(C)cccc3C)c2)c(=O)c1 |
| 5 to 10 | Cc1cccc(C)c1-c1cccc([C@H](CC(=O)O)NC(=O)[C@H](CC(C)C)n2cc(CCN(C)C)ccc2=O)c1 |
| > 50 | Cc1cccc(C)c1-c1cccc([C@H](CC(=O)O)NC(=O)[C@H](CC(C)C)n2cc(CN3CC(F)C3)ccc2=O)c1 [drawing 594] |
| < 5 | Cc1cccc(C)c1-c1cccc([C@H](CC(=O)O)NC(=O)[C@H](CC(C)C)n2cc(CN3CC(F)C3)ccc2=O)c1 [drawing 599] |
| > 50 | Cc1cccc(C)c1-c1cccc([C@H](CC(=O)O)NC(=O)[C@H](CC(C)C)n2cc(CN3CC(F)C3)ccc2=O)c1 [drawing 585] |
| > 50 | Cc1cccc(C)c1-c1cncc([C@H](CC(=O)O)NC(=O)[C@H](CC(C)C)n2cc(CN3CC(F)C3)ccc2=O)c1 |
| > 50 | Cc1cccc(C)c1-c1cncc([C@H](CC(=O)O)NC(=O)C(CC(C)C)n2cc(C(F)(F)F)ccc2=O)c1 (stereo partly drawn) |

Source: US11104661B1, “Inhibiting human integrin (α-4) (β-7)” (Morphic Therapeutic, Inc., priority 2019, dated 2021)
